Measurements as given in PubChem BioAssay (NCI).
Values joined by “and” are separate entries in the source; they are usually repeats but may differ in a detail not shown here. Equal entries are not always repeated.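 How tested: cells in 96-well plates exposed to compound for 48 hours at five concentrations. The concentration for 50% growth inhibition is given as GI50. The concentration for full growth arrest is given as TGI.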

How the values were obtained:
Experiment in all cases: NCI-60 cell line screen, 48 h
[1] = system: CCRF-CEM leukemia
[2] = system: HCC-2998 colon
[3] = system: MOLT-4 leukemia
[4] = system: NCI-H226 lung
[5] = system: NCI-H23 lung
[6] = system: NCI-H460 lung
[7] = system: NCI-H522 lung
[8] = system: OVCAR-3 ovarian
[9] = system: OVCAR-5 ovarian
[10] = system: SNB-19 CNS

SMILES | GI50 [1] | TGI [1] | GI50 [2] | TGI [2] | GI50 [3] | TGI [3] | GI50 [4] | TGI [4] | GI50 [5] | TGI [5] | GI50 [6] | TGI [6] | GI50 [7] | TGI [7] | GI50 [8] | TGI [8] | GI50 [9] | TGI [9] | GI50 [10] | TGI [10]
O=[N+]([O-])C1C(c2ccccc2)C12c1ccccc1-c1ccccc12 (configuration not stated) | 0.318 µM | 4.22 µM | 1.49 µM | 6.43 µM | 0.746 µM | > 26.3 µM | 2.05 µM | 14.5 µM | 2.06 µM | > 47.2 µM | 0.589 µM | 10.7 µM | 0.68 µM | 13 µM | 0.783 µM | 3.59 µM | 4.65 µM | > 51.8 µM | 12.4 µM | > 100 µM
CC(=O)Nc1ccc2c(c1)c(C1=C(c3cn(C)c4ccccc34)C(=O)NC1=O)cn2C | 0.991 µM | > 25 µM | > 11.2 µM | > 25 µM | 2.4 µM | 13.8 µM | 3.1 µM | > 25 µM | 5.45 µM | > 25 µM | 0.986 µM | > 25 µM | 0.702 µM | > 6.59 µM | 0.723 µM | 2.16 µM | > 25 µM | > 25 µM | > 18.2 µM | > 25 µM
Cc1nc2c(nc1C)C(=O)c1cc(O)ccc1C2=O | – | > 100 µM | – | > 100 µM | – | > 100 µM | – | > 100 µM | – | > 100 µM | – | > 100 µM | – | > 100 µM | – | > 100 µM | – | > 100 µM | – | > 100 µM
CCOc1ccccc1NC(=O)C(=O)CC(=O)c1c(C)n([O-])c2ccccc2[n+]1=O | – | > 100 µM | – | > 100 µM | – | > 100 µM | – | > 100 µM | – | > 100 µM | – | > 100 µM | – | > 100 µM | – | 75.8 µM | – | > 100 µM | – | > 100 µM
Cc1cnc2c(C)ccc([N+](=O)[O-])c2c1NCCCN(C)C | – | > 100 µM | – | > 100 µM | – | > 100 µM | – | > 100 µM | – | > 100 µM | – | > 100 µM | – | > 100 µM | – | > 100 µM | – | > 100 µM | – | > 100 µM
N#Cc1c(-c2nc3ccccc3s2)c(=O)oc2cc(O)ccc12 | – | > 100 µM | – | > 100 µM | – | > 100 µM | – | > 100 µM | – | > 100 µM | – | > 100 µM | – | > 100 µM | – | > 100 µM | – | > 100 µM | – | > 100 µM
C[C@@H]1C[C@@H](O)[C@]2(O)O[C@@H]3C[C@@]4(C=O)[C@@H](CC[C@@H]5[C@@H]4CC[C@]4(C)[C@@H](C6=CC(=O)OC6)CC[C@]54O)C[C@H]3O[C@@H]2O1 | 0.005 µM | 0.0391 µM and 0.0223 µM | 0.0273 µM | 0.582 µM and 0.134 µM | 0.00699 µM and 0.005 µM | – | 0.188 µM and 0.0333 µM | 0.0857 µM and 0.529 µM and 0.116 µM | 0.0282 µM and 0.005 µM | – | 0.0229 µM | 0.0195 µM and 0.0817 µM and 0.0192 µM | 0.00751 µM | – | 0.0241 µM | – | 0.119 µM and 0.0652 µM | 0.102 µM and 0.299 µM and 0.194 µM | 0.101 µM and 0.0197 µM | 0.145 µM and 0.217 µM and 0.184 µM
CC1OC(OCC2OC(Oc3c(-c4ccc(O)cc4)oc4cc(O)cc(O)c4c3=O)C(OC3OCC(O)(CO)C3O)C(O)C2O)C(O)C(O)C1O (configuration not stated) | – | > 100 µM | – | > 100 µM | – | > 100 µM | – | > 100 µM | – | > 100 µM | – | > 100 µM | – | > 100 µM | – | > 100 µM | – | > 100 µM | – | > 100 µM
CN1CCN(CN2C(=O)C3C4C=CC(C3C2=O)C2C3C(=O)N(CN5CCN(C)CC5)C(=O)C3C42)CC1 (configuration not stated) | – | 65.3 µM and 42 µM and 48.3 µM | – | 89.2 µM and 51.5 µM and 79 µM | – | 60.6 µM and 51.3 µM and 55.9 µM | 33.5 µM and > 57.7 µM and 76.8 µM | > 100 µM | – | 43.9 µM and 39.6 µM and 75.2 µM | – | 32.3 µM and 37.9 µM and 27.3 µM | – | 39.6 µM and 25.4 µM | – | 48.2 µM and 57.6 µM and 75.5 µM | – | > 100 µM | 31.7 µM and 53.2 µM and 76.9 µM | > 100 µM
COc1ccc2nc(N/N=C(\C)c3ccccn3)cc(C)c2c1 | 0.0679 µM | 0.4 µM | 0.348 µM | 2.06 µM | 0.131 µM | 0.488 µM | 0.222 µM | 1 µM | 0.44 µM | 4.46 µM | 0.118 µM | 1.13 µM | 0.292 µM | 1.88 µM | 0.0652 µM | 0.215 µM | 0.571 µM | 3.68 µM | 0.382 µM | 2.12 µM
CNC(=O)c1cc(OC2CCC(NC(=O)Nc3ccc(Cl)c(C(F)(F)F)c3)CC2)ccn1 (configuration not stated) | 4.41 µM | > 100 µM | 7 µM | 19.2 µM | 4 µM | 21.5 µM | 9.99 µM | 25.6 µM | 4.47 µM | 20.4 µM | 6.92 µM | 28.6 µM | 4.16 µM | 16.9 µM | 10.7 µM | 32 µM | 12.5 µM | 31.1 µM | 7.91 µM | 32.2 µM
CS(=O)(=O)CCNCc1nc(-c2ccc3ncnc(Nc4ccc(F)c(Cl)c4)c3c2)cs1 | 15.4 µM | > 25 µM | > 25 µM | > 25 µM | 15.3 µM | > 25 µM | > 18.1 µM | > 25 µM | > 25 µM | > 25 µM | 18.7 µM | > 25 µM | 3.34 µM | > 25 µM | 11.1 µM | > 25 µM | > 25 µM | > 25 µM | > 25 µM | > 25 µM
COc1ccc(C(=O)/C(Br)=C/C(=O)O)cc1 | 3.22 µM and 9.43 µM | 61 µM and 81.7 µM | 26.6 µM | 76.3 µM and 51.8 µM | 21 µM | 98.5 µM and 86.5 µM | 39.1 µM | 148 µM and 145 µM | 21.3 µM | 112 µM and 205 µM | 14.4 µM | 300 µM and 72 µM | 13.3 µM | 50.4 µM and 22.9 µM | 35.6 µM and 22.7 µM | 133 µM and 116 µM | – | 131 µM and 129 µM | 56.3 µM | 188 µM and 375 µM
O=C(O)c1c(-c2cccc3ccccc23)sc(-c2cccc3ccccc23)c1C(=O)O | – | > 100 µM | – | > 100 µM | – | 85.7 µM | – | > 100 µM | – | > 100 µM | – | > 100 µM | – | > 100 µM | – | > 100 µM | – | > 100 µM | – | > 100 µM
